Assay results as given in patent US8772480B2, “Inhibitors of PI3 kinase and/or mTOR” (priority 2009, dated 2014).

Key:
PI3Kα = PI3Kα (Homo sapiens (Human), UniProt P42336); conditions: read-out: PI3Kα AlphaScreen ® Ki
[1] = test system: phosphorylation of Akt at Serine 473 in U87 MG cells; experiment: cells; conditions: Homo sapiens, U-87 MG, 2 h, read-out: U87Cell IC50, pAkt (Ser 473), U87 MG cells, two hours with compound

PI3Kα, sequence (P42336 whole entry): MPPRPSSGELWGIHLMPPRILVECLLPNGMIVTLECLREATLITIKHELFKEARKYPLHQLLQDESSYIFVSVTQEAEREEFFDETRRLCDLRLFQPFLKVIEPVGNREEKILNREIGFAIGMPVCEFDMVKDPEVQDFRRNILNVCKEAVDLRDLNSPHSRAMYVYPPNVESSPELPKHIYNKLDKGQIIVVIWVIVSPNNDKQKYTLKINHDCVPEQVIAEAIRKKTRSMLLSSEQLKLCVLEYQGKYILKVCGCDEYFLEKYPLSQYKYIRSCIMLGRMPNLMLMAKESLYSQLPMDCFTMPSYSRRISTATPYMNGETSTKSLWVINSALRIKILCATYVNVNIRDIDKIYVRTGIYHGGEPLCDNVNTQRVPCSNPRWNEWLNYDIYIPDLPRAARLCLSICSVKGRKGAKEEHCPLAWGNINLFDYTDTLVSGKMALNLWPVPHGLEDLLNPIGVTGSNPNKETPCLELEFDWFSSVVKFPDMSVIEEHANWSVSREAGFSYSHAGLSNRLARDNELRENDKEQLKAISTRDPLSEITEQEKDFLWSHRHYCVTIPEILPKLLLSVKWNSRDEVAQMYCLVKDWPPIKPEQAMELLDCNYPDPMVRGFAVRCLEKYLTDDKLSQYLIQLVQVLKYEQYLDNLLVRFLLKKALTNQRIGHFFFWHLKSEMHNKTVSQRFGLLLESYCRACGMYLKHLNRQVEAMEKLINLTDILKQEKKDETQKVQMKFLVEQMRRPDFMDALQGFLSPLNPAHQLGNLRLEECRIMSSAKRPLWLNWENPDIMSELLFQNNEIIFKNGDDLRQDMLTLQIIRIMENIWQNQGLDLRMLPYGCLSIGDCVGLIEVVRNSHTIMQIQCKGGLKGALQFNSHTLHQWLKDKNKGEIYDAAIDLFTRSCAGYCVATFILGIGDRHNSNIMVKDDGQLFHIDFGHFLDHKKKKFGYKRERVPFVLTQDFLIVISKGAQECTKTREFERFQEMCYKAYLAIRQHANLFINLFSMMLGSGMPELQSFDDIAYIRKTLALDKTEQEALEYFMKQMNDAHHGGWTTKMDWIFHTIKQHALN
PI3Kα, sequence (P27986 whole entry partner): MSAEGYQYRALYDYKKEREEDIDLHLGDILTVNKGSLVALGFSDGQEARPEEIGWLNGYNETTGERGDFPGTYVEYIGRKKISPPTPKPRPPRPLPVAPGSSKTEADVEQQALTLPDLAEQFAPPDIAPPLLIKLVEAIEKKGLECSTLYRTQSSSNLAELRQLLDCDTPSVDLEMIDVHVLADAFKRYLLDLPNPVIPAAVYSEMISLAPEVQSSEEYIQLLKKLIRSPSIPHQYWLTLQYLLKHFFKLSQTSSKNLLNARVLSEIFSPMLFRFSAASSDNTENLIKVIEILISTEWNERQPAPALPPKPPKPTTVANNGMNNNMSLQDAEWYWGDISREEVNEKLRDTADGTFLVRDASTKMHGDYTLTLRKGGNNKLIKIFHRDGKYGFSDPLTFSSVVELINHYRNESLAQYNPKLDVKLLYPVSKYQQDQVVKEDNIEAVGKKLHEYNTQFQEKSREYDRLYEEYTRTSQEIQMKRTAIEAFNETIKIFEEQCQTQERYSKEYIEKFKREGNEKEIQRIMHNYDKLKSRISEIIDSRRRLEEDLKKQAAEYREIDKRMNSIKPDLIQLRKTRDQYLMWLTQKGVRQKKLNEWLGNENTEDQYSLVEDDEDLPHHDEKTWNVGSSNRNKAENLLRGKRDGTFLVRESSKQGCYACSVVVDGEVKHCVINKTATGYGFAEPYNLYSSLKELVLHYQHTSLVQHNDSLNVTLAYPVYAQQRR

Row | SMILES | Ki (PI3Kα) [nM] | IC50 [1] [nM]
1 | COc1ccc(Nc2ncc(CN[C@H](C)CO)cc2-c2nc(C)nc(N)n2)cn1 [Example 226, (R)-2-((5-(4-Amino-6-Methyl-1,3,5-Triazin-2-yl)-6-(6-Methoxypyridin-3-Ylamino)Pyridin-3-yl)Methylamino)Propan-1-ol] | 354 | 573
2 | COc1ccc(Nc2ncc(C(O)c3cc(Br)ccc3S(=O)(=O)N(C)C)cc2-c2nc(C)nc(N)n2)cn1 (stereo not drawn) [Example 235, 2-((5-(4-Amino-6-Methyl-1,3,5-Triazin-2-yl)-6-(6-Methoxypyridin-3-Ylamino)Pyridin-3-yl)(Hydroxy)Methyl)-4-Bromo-N,N-Dimethylbenzenesulfonamide] | 23 | > 10000
3 | COc1ncc(Nc2ncc(C(C)(C)O)cc2-c2nc(C)nc(N)n2)cc1C [Example 354, 2-(5-(4-Amino-6-Methyl-1,3,5-Triazin-2-yl)-6-(6-Methoxy-5-Methylpyridin-3-Ylamino)Pyridin-3-yl)Propan-2-ol] | 12 | 37
4 | COc1ncc(Nc2ncc(C(C)(C)O)nc2-c2cc(N)nc(C)n2)cc1F [Example 284, 2-(6-(6-Amino-2-Methylpyrimidin-4-yl)-5-(5-Fluoro-6-Methoxypyridin-3-Ylamino)Pyrazin-2-yl)Propan-2-ol] | 31 | 63
5 | COc1ccc(Nc2ncc(CN3CCOCC3=O)cc2-c2nc(C)nc(N)n2)cn1 [Example 154, 4-((5-(4-Amino-6-Methyl-1,3,5-Triazin-2-yl)-6-((6-Methoxy-3-Pyridinyl)Amino)-3-Pyridinyl)Methyl)-3-Morpholinone] | 33 | 79
6 | COc1ccc(Nc2ncc(N3CCN(S(C)(=O)=O)CC3)cc2-c2nc(C)nc3[nH]cnc23)cn1 [Example 99, N-(6-Methoxypyridin-3-yl)-3-(2-Methyl-9H-Purin-6-yl)-5-(4-(Methylsulfonyl)Piperazin-1-yl)Pyridin-2-Amine] | 23 | 204
7 | COc1ccc(Nc2ncc(N3CCC[C@H]3CO)cc2-c2nc(C)nc3[nH]cnc23)cn1 [Example 100, ((2S)-1-(6-(6-Methoxypyridin-3-Ylamino)-5-(2-Methyl-9H-Purin-6-yl)Pyridin-3-yl)Pyrrolidin-2-yl)Methanol] | 29 | 192
8 | COc1ccc(Nc2ncc(CNc3ccccn3)cc2-c2nc(C)nc3[nH]cnc23)cn1 [Example 82, N-(6-methoxypyridin-3-yl)-3-(2-methyl-9H-purin-6-yl)-5-((pyridin-2-ylamino)methyl)pyridin-2-amine] | 25 | 226
9 | Cc1nc(-c2cc(C(C)N3CCOCC3)cnc2Nc2cnc(Cl)c(NS(=O)(=O)N(C)C)c2)c2nc[nH]c2n1 (stereo not drawn) [Example 340, N′-(2-Chloro-5-((3-(2-Methyl-9H-Purin-6-yl)-5-(1-(4-Morpholinyl)Ethyl)-2-Pyridinyl)Amino)-3-Pyridinyl)-N,N-Dimethylsulfamide] | 4 | 14
10 | Cc1nc(N)cc(-c2nc3ccccc3nc2Nc2cccc3[nH]ncc23)n1 [Example 180, 3-(6-Amino-2-Methylpyrimidin-4-yl)-N-(1H-Indazol-4-yl)Quinoxalin-2-Amine] | 124 | 1570
11 | COc1ncc(Nc2ncc(C(C)c3ccc(S(C)(=O)=O)cc3)cc2-c2nc(C)nc(N)n2)cc1F (stereo not drawn) [Example 150, 4-(2-(5-Fluoro-6-Methoxypyridin-3-Ylamino)-5-(1-(4-(Methylsulfonyl)Phenyl)Ethyl)Pyridin-3-yl)-6-Methyl-1,3,5-Triazin-2-Amine] | 1 | 11
12 | COc1cc(Nc2ncc([C@@H](C)N3CCN(S(C)(=O)=O)CC3)cc2-c2nc(C)nc(N)n2)cnc1Cl [Example 341, (R)-4-(2-(6-Chloro-5-Methoxypyridin-3-Ylamino)-5-(1-(4-(Methylsulfonyl)Piperazin-1-yl)Ethyl)Pyridin-3-yl)-6-Methyl-1,3,5-Triazin-2-Amine] | 19 | 17
13 | COCCOc1cnc(Nc2cnc(OC)c(NS(C)(=O)=O)c2)c(-c2nc(C)nc(N)n2)c1 [Example 336, N-(5-(3-(4-Amino-6-Methyl-1,3,5-Triazin-2-yl)-5-(2-Methoxyethoxy)Pyridin-2-Ylamino)-2-Methoxypyridin-3-yl)Methanesulfonamide] | 55 | 36
14 | CC(=O)Nc1ccc(Nc2ncc(CN3CCN(S(C)(=O)=O)CC3)cc2-c2nc(C)nc(N)n2)cc1F [Example 267, N-(4-(3-(4-Amino-6-Methyl-1,3,5-Triazin-2-yl)-5-((4-(Methylsulfonyl)Piperazin-1-yl)Methyl)Pyridin-2-Ylamino)-2-Fluorophenyl)Acetamide] | 369 | 486
15 | COc1ccc(Nc2ncc(C(O)c3ccc(S(C)(=O)=O)cc3)cc2-c2nc(C)nc3[nH]cnc23)cn1 (stereo not drawn) [Example 139, (6-(6-methoxypyridin-3-ylamino)-5-(2-methyl-9H-purin-6-yl)pyridin-3-yl)(4-(methylsulfonyl)phenyl)methanol] | 5 | 185
16 | Cc1nc(N)cc(-c2cccnc2Nc2cnc(Cl)c(NS(=O)(=O)N(C)C)c2)n1 [Example 375, N-(5-(3-(6-Amino-2-Methylpyrimidin-4-yl)Pyridin-2-Ylamino)-2-Chloropyridin-3-yl)-N,N-Dimethylaminosulfamide] | 152 | 175
17 | COCCNc1nc(C)nc(-c2cc(Cl)cnc2Nc2cnc(OC)c(F)c2)n1 [Example 189, 4-(5-Chloro-2-(5-Fluoro-6-Methoxypyridin-3-Ylamino)Pyridin-3-yl)-N-(2-Methoxyethyl)-6-Methyl-1,3,5-Triazin-2-Amine] | 409 | > 10000
18 | COc1ncc(Nc2ncc(C(OC(=O)c3cccc(Cl)c3)C(C)(C)O)cc2-c2nc(C)nc(N)n2)cc1F (stereo not drawn) [Example 351, 1-(5-(4-Amino-6-Methyl-1,3,5-Triazin-2-yl)-6-(5-Fluoro-6-Methoxypyridin-3-Ylamino)Pyridin-3-yl)-2-Hydroxy-2-Methylpropyl 3-Chlorobenzoate] | 9 | 70
19 | COc1ccc(Nc2nc(N3CCOCC3)ncc2-c2nc(C)nc(N)n2)cn1 [Example 120, 4-(4-(6-methoxypyridin-3-ylamino)-2-morpholinopyrimidin-5-yl)-6-methyl-1,3,5-triazin-2-amine] | 97 | 148
20 | C=Cc1cnc(Nc2cnc(Cl)c(NS(C)(=O)=O)c2)c(-c2cc(N)nc(C)n2)c1 [Example 380, N-(5-(3-(6-Amino-2-Methylpyrimidin-4-yl)-5-Vinylpyridin-2-Ylamino)-2-Chloropyridin-3-yl)Methanesulfonamide] | 59 | 16
21 | COc1ccc(Nc2ncc(CN3CC(N)C3)cc2-c2nc(C)nc(N)n2)cn1 [Example 231, 4-(5-((3-Aminoazetidin-1-yl)Methyl)-2-(6-Methoxypyridin-3-Ylamino)Pyridin-3-yl)-6-Methyl-1,3,5-Triazin-2-Amine] | 446 | 404
22 | Cc1nc(N)nc(-c2cc(C(C)N3CCN(S(C)(=O)=O)CC3)cnc2Nc2ccc3scnc3c2)n1 (stereo not drawn) [Example 290, N-(3-(4-Amino-6-Methyl-1,3,5-Triazin-2-yl)-5-(1-(4-(Methylsulfonyl)Piperazin-1-yl)Ethyl)Pyridin-2-yl)Benzo[D]Thiazol-5-Amine] | 24 | 45
23 | COc1ncc(Nc2ncc(C=O)cc2-c2nc(C)nc(N)n2)cc1F [Example 187, 5-(4-Amino-6-Methyl-1,3,5-Triazin-2-yl)-6-(5-Fluoro-6-Methoxypyridin-3-Ylamino)Nicotinaldehyde] | 13 | 18
24 | COc1ccc(Nc2ncccc2-c2nc(C)nc(N)n2)cc1F [Example 166, 4-(2-(3-Fluoro-4-Methoxyphenylamino)Pyridin-3-yl)-6-Methyl-1,3,5-Triazin-2-Amine] | 177 | 902
25 | COc1ccc(Nc2ncc([C@@H](C)N3CCN(S(C)(=O)=O)CC3)cc2-c2nc(C)nc(N)n2)cn1 [Example 146, (R)-4-(2-(6-Methoxypyridin-3-Ylamino)-5-(1-(4-(Methylsulfonyl)Piperazin-1-yl)Ethyl)Pyridin-3-yl)-6-Methyl-1,3,5-Triazin-2-Amine] | 6 | 7
26 | COc1ncc(Nc2ncc([C@@H](C)N3CCN(S(C)(=O)=O)C[C@@H]3C)cc2-c2nc(C)nc3[nH]cnc23)cc1F [Example 295, N-(5-Fluoro-6-Methoxypyridin-3-yl)-5-((R)-1-((S)-2-Methyl-4-(Methylsulfonyl)Piperazin-1-yl)Ethyl)-3-(2-Methyl-9H-Purin-6-yl)Pyridin-2-Amine] | 3 | 6
27 | COc1ncc(Nc2ncc(Cc3ccc(S(C)(=O)=O)cc3)cc2-c2nc(C)nc(N)n2)cc1F [Example 142, 4-(2-(5-fluoro-6-methoxypyridin-3-ylamino)-5-(4-(methylsulfonyl)benzyl)pyridin-3-yl)-6-methyl-1,3,5-triazin-2-amine] | 2 | 6
28 | COc1ncc(Nc2ncc(CN3CCN(C(=O)N(C)C(C)C)CC3)cc2-c2nc(C)nc(N)n2)cc1F [Example 357, 4-((5-(4-Amino-6-Methyl-1,3,5-Triazin-2-yl)-6-(5-Fluoro-6-Methoxypyridin-3-Ylamino)Pyridin-3-yl)Methyl)-N-Isopropyl-N-Methylpiperazine-1-Carboxamide] | 14 | 83
29 | Cc1ccc2cc(Nc3ncccc3-c3nc(C)nc(N)n3)ccc2n1 [Example 171, N-(3-(4-Amino-6-Methyl-1,3,5-Triazin-2-yl)Pyridin-2-yl)-2-Methylquinolin-6-Amine] | 611 | > 10000
30 | Cc1nc(N)nc(-c2cccnc2Nc2ccc3c(c2)OC(F)(F)O3)n1 [Example 168, 4-(2-(2,2-Difluorobenzo[D][1,3]Dioxol-5-Ylamino)Pyridin-3-yl)-6-Methyl-1,3,5-Triazin-2-Amine] | 610 | > 10000
